The assay addresses T1, IRAK4 (Homo sapiens, UniProt Q9NWZ3).
T1 construct: purchased CARNA Bioscience 09-145
T1 sequence (Q9NWZ3 1-460): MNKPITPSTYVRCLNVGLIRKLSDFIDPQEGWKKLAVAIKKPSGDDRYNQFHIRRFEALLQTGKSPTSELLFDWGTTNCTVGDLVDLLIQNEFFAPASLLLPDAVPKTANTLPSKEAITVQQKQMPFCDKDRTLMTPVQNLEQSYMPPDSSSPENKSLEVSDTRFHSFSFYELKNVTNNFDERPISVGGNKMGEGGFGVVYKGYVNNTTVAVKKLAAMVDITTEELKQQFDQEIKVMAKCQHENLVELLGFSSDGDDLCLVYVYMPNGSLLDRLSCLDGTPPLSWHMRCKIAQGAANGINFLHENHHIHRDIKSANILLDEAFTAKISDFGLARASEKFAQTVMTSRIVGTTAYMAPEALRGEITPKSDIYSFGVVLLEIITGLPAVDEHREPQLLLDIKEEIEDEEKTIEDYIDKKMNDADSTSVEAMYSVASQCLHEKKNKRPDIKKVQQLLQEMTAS
Nature of the assay: IRAK-4 activity inhibition assay (Caliper). The assay is classed as biochemical. Particulars: 3.5 nM IRAK4, 1.5 μM Peptide 8, 37 μM ATP. How it is done:
A 1x kinase base buffer was prepared from 50 mM HEPES, pH 7.5 and 0.0015% Brij-35. A stop buffer was prepared from 100 mM HEPES, pH 7.5, 0.015% Brij-35, 0.2% Coating Reagent #3, and 50 mM EDTA.
Test compound was diluted to 50× of the final desired highest inhibitor concentration in reaction by 100% DMSO. 100 ul of this compound dilution was transferred to a well in a 96-well plate. For example, if desired highest inhibitor concentration in IC50 determination is 100 uM, then prepare 5000 uM of compound DMSO solution in this step.
Test compound was serially diluted by transferring 30 μl to 60 μl of 100% DMSO in the next well and so forth for a total of 10 concentrations. 100 μl of 100% DMSO was added to two empty wells for no compound control and no enzyme control in the same 96-well plate.
A new 96-well plate was marked as intermediate plate. 5 μl of compound serial dilution was transferred from source plate to the corresponding wells of the intermediate plate. 45 μl of 1x kinase base buffer (KB buffer) was added to each well of the intermediate plate. The intermediate plate was placed for 10 min on a shaker.
5 μl of each well was transferred from the 96-well intermediate plate to a 384-well plate in duplicates. For example, A1 of the 96-well plate is transferred to A1 and A2 of the 384-well plate. A2 of the 96-well plate is transferred to A3 and A4 of the 384-well plate, and so on.
IRAK4 and DTT in 1x kinase base buffer was added. The 2.5x enzyme mix contained 8.8 nM IRAK4 and 5 mM DTT.
Peptide 8, ATP, MgCl2 and MnCl2 were added in the 1x kinase base buffer. The 2.5x peptide mix contained 3.75 μM peptide 8, 92.5 μM ATP, 12.5 mM MgCl2 and 2.5 mM MnCl2.
Assay plate already contained 5 μl of compound in 10% DMSO. Added 10 μl of 2.5x enzyme solution to each well of the 384-well assay plate, except no enzyme control wells. The final concentration of IRAK4 in reaction was 3.5 nM. Added 10 μl of 1x kinase base buffer to no enzyme control wells in the assay plate. Incubated at room temperature for 10 min.
Added 10 μl of 2.5x peptide solution to each well of the 384-well assay plate. The final concentration of Peptide 8 and ATP was 1.5 μM and 37 μM, respectively. Incubated at for 40 minutes. Added 25 μl of stop buffer to stop reaction. Collected data on Caliper.
Copied conversion % data from Caliper program. Converted conversion % values to percent inhibition values. Percent inhibition=(max−conversion %)/(max−min)*100, where “max” means the conversion % of DMSO control and “min” means the conversion % of no enzyme control.
The compound numbers correspond to the compound numbers in Table 1. Compounds having an activity designated as “A” provided an IC50≦5 μM; compounds having an activity designated as “B” provided an IC50 of 5-20 μM; compounds having an activity designated as “C” provided an IC50 of 20-50 μM; and compounds having an activity designated as “D” provided an IC50≧50 μM. “NA” stands for “not assayed.”

Drawing on patent US20150329498A1, “IRAK INHIBITORS AND USES THEREOF” (Nimbus Iris, Inc., priority 2014, published 2015), this text covers IC50 for 26 compounds.

A value given as a limit tells only on which side of the number the result lay.

In general, IC50 refers to the concentration needed to halve the response being measured. `NC(=O)CCc1ccc2ncnc(N[C@H]3CC[C@H](N4CCOCC4)CC3)c2c1` [Compound I-50, 3-(4-(((1r,4r)-4-morpholinocyclohexyl)amino)quinazolin-6-yl)propanamide] came in with an IC50 not above 5 µM. As for `COCCc1ccc2ncnc(N[C@H]3CC[C@H](N4CCOCC4)CC3)c2c1` [Compound I-33, 6-(2-methoxyethyl)-N-((1r,4r)-4-morpholinocyclohexyl)-quinazolin-4-amine], the IC50 is not above 5 µM. Compound `OCC(O)c1ccc2ncnc(O[C@H]3CC[C@H](N4CCOCC4)CC3)c2c1` (some centres unmarked) [Compound I-17, 1-(4-(((1r,4r)-4-morpholinocyclohexyl)oxy)quinazolin-6-yl)ethane-1,2-diol] displayed an IC50 not above 5 µM. The compound `OC/C=C\c1ccc2ncnc(N[C@H]3CC[C@H](N4CCOCC4)CC3)c2c1` [Compound I-42, (Z)-3-(4-(((1r,4r)-4-morpholinocyclohexyl)amino)quinazolin-6-yl)prop-2-en-1-ol] came in with an IC50 not above 5 µM. Compound `O=C(O)/C=C/c1ccc2ncnc(N[C@H]3CC[C@H](N4CCOCC4)CC3)c2c1` [Compound I-55, (E)-3-(4-(((1 r,4r)-4-morpholinocyclohexyl)amino)quinazolin-6-yl)acrylic acid] returned an IC50 not above 5 µM.

`CCc1ccc2ncnc(O[C@H]3CC[C@H](N4CCOCC4)CC3)c2c1` [Compound I-18, 4-((1r,4r)-4-((6-ethylquinazolin-4-yl)oxy)cyclohexyl) morpholine] returned an IC50 not above 5 µM. `OCc1ccc2ncnc(N[C@H]3CC[C@H](N4CCOCC4)CC3)c2c1` [Compound I-23, (4-(((1r,4r)-4-morpholinocyclohexyl)amino)quinazolin-6-yl)methanol] yielded an IC50 not above 5 µM. In turn, `N#Cc1ccc2ncnc(O[C@H]3CC[C@H](N4CCOCC4)CC3)c2c1` [Compound I-8, 4-(((1r,4r)-4-morpholinocyclohexyl)oxy)quinazoline-6-carbonitrile] returned an IC50 not above 5 µM. `c1ccc2c(N[C@H]3CC[C@H](N4CCOCC4)CC3)ncnc2c1` [Compound I-1, N-((1r,4r)-4-morpholinocyclohexyl)quinazolin-4-amine] showed an IC50 not above 5 µM. The result for `CCc1ccc2ncnc(N[C@H]3CC[C@H](N4CCC(C)(C)CC4)CC3)c2c1` [Compound I-45, N-((1r,4r)-4-(4,4-dimethylpiperidin-1-yl)cyclohexyl)-6-ethylquina-zolin-4-amine] reads not above 5 µM. As to `Cn1cc(-c2ccc3ncnc(N[C@H]4CC[C@H](N5CCOCC5)CC4)c3c2)cn1` [Compound I-60, 6-(1-methyl-1H-pyrazol-4-yl)-N-((1r,4r)-4-morpholinocyclo-hexyl)quinazolin-4-amine], the IC50 was not above 5 µM. Regarding `C=Cc1ccc2ncnc(N[C@H]3CC[C@H](N4CCC(C)(C)CC4)CC3)c2c1` [Compound I-43, N-((1r,4r)-4-(4,4-dimethylpiperidin-1-yl)cyclohexyl)-6-vinyl-quinazolin-4-amine], the IC50 is not above 5 µM. Consider `NC(=O)c1ccc2ncnc(O[C@H]3CC[C@H](N4CCOCC4)CC3)c2c1` [Compound I-9, 4-(((1r,4r)-4-morpholinocyclohexyl)oxy)quinazoline-6-carboxamide], for which the IC50 was not above 5 µM. With `CC(C)(O)/C=C/c1ccc2ncnc(N[C@H]3CC[C@H](N4CCOCC4)CC3)c2c1` [Compound I-57, (E)-2-methyl-4-(4-(((1r,4r)-4-morpholinocyclohexyl)amino)quina-zolin-6-yl)but-3-en-2-ol], the IC50 is not above 5 µM. Compound `OCC(O)c1ccc2ncnc(N[C@H]3CC[C@H](N4CCOCC4)CC3)c2c1` (some centres unmarked) [Compound I-21, 1-(4-(((1r,4r)-4-morpholinocyclohexyl)amino)quinazolin-6-yl)-ethane-1,2-diol] showed an IC50 not above 5 µM.

The compound `N#Cc1ccc2nccc(N[C@H]3CC[C@H](N4CCC5(CC4)CC5)CC3)c2c1` [Compound I-48, 4-(((1r,4r)-4-(6-azaspiro[2.5]octan-6-yl)cyclohexyl)-amino)quinoline-6-carbonitrile] had a half-maximal inhibitory concentration (IC50) not above 5 µM.

Consider `CC1(C)CCN([C@H]2CC[C@H](Nc3ncnc4ccc(C#N)cc34)CC2)CC1` [Compound I-37, 4-(((1r,4r)-4-(4,4-dimethylpiperidin-1-yl)cyclohexyl)amino)-quinazoline-6-carbonitrile], for which the IC50 is not above 5 µM. On to `CN(CC(=O)N1CCCC1)[C@H]1CC[C@H](Nc2ncnc3ccc(C#N)cc23)CC1` [Compound I-13, 4-(((1r,4r)-4-(methyl(2-oxo-2-(pyrrolidin-1-yl)ethyl)amino)-cyclohexyl)amino)quinazoline-6-carbonitrile], for which the IC50 was not above 5 µM. `FC(F)(F)c1ccc2ncnc(O[C@H]3CC[C@H](N4CCOCC4)CC3)c2c1` [Compound I-6, 4-((1r,4r)-4-((6-(trifluoromethyl)quinazolin-4-yl)oxy)cyclohexyl)-morpholine] showed an IC50 not above 5 µM. As to `OCc1ccc2ncnc(O[C@H]3CC[C@H](N4CCOCC4)CC3)c2c1` [Compound I-19, (4-(((1r,4r)-4-morpholinocyclohexyl)oxy)quinazolin-6-yl)methanol], the IC50 was not above 5 µM.

In the case of `Cc1cc(Nc2nc(N[C@H]3CC[C@H](N4CCOCC4)CC3)c3cc(C#N)ccc3n2)sn1` [Compound I-61, 2-((3-methylisothiazol-5-yl)amino)-4-(((1r,4r)-4-morpholino-cyclohexyl)amino)quinazoline-6-carbonitrile], the IC50 was not above 5 µM. For the compound `N#CCCc1ccc2ncnc(N[C@H]3CC[C@H](N4CCOCC4)CC3)c2c1` [Compound I-51, 3-(4-(((1r,4r)-4-morpholinocyclohexyl)amino)quinazolin-6-yl)propanenitrile], the IC50 was not above 5 µM. The compound `C=Cc1ccc2nccc(N[C@H]3CC[C@H](N4CCC5(CC4)CC5)CC3)c2c1` [Compound I-49, N-((1r,4r)-4-(6-azaspiro[2.5]octan-6-yl)cyclohexyl)-6-vinylquino-lin-4-amine] returned an IC50 not above 5 µM. The compound `COCc1ccc2ncnc(N[C@H]3CC[C@H](N4CCOCC4)CC3)c2c1` [Compound I-32, 6-(methoxymethyl)-N-((1r,4r)-4-morpholinocyclohexyl)quina-zolin-4-amine] displayed an IC50 not above 5 µM.

`Brc1ccc2ncnc(O[C@H]3CC[C@H](N4CCOCC4)CC3)c2c1` [Compound I-4, 4-((1r,4r)-4-((6-bromoquinazolin-4-yl)oxy)cyclohexyl)morpholine]: the IC50 was not above 5 µM. The result for `FC(F)(F)c1ccc2ncnc(N[C@H]3CC[C@H](N4CCOCC4)CC3)c2c1` [Compound I-12, N-((1r,4r)-4-morpholinocyclohexyl)-6-(trifluoromethyl)-quinazolin-4-amine] reads not above 5 µM.
